Assay results from patent US20160367578A1, “METHODS AND COMPOSITIONS FOR ERADICATING LEUKEMIC CELLS” (priority 2013, published 2016).
Entries after “also recorded” stand apart in the source; their conditions may differ. Where two headings read alike, the source gives them in different places.

Key:
MLL-AF9 cells = experiment: MLL-AF9 viability under chemotherapy with or w/o MS-5 stromal layer, transwell inserts and CBX (7AAD FACS); format: cell-based, mouse
Source text: Viability was detected via GFP expression and 7AAD exclusion.
To test this hypothesis, we evaluated the response of MLL-AF9 leukemic cells to chemotherapy in vitro, with and without supporting bone marrow stromal cells using time-lapse video microscopy combined with flow cytometry. […] MS-5 are murine bone-marrow stromal cells that were previously shown to support hematopoietic stem and progenitor cells (Itoh, et al., Experimental Hematology 21, 145-153 (1989) and Schajnovitz, et al., Nature Immunology 12, 391-8 (2011)). […] In order to distinguish between Stromal-leukemic (heterotypic) interactions and leukemic-leukemic (homotypic) interactions, we separated the MLL-AF9 from the stroma by transwell inserts, to restrict heterotypic interactions while allowing homotypic interactions.
Since adhesion interactions of hematopoietic cells are commonly accompanied with intercellular communication, we then tested the potential role of gap junctions activity in drug resistance. Gap junction intercellular channels, which are homo- and hetero-hexamers of connexin proteins, facilitate intercellular communication between contacting cells via the passage of secondary messengers, such as calcium and cAMP^17.

[1] = test system: primary bone marrow leukocytes or primary peripheral blood leukocytes; experiment: Viability of normal primary leukocytes exposed to CBX, alone or in 1:1 mixtures (7AAD FACS); format: cell-based, mouse; set-up: sensitivity of wild type primary leukocytes from BM or PB: dose or concentration left out as unconfirmed; settings: for effect on normal counterparts in 1:1 mixtures with different AML cells: MLL-AF9 clone A/B or HoxA9/Meis1 mixtures
Experimental: Cells were distinguished by Cd45.1/CD45.2 expression and cell viability was determined by % of 7AAD-negative cells, in FACS analysis.
(§1) We then asked how blockage of gap junction intercellular communication affects AML cells, without additional treatment. […] In order to exclude the possibility of clone specific effects, we have repeated the experiments with a different MLL-AF9 clone, generated independently, and also included HoxA9/Meis1 AML cells that represent a different type of AML.

[2] = test system: murine AML cells (MLL-AF9 clone A, MLL-AF9 clone B, HoxA9/Meis1 cells); experiment: Viability of murine AML cells in 1:1 mixtures with normal leukocytes exposed to CBX for 16 hours; format: cell-based, mouse
Experimental: Cells were distinguished by Cd45.1/CD45.2 expression and cell viability was determined by % of 7AAD-negative cells, in FACS analysis. (*p<0.01).
Cells were distinguished by CD45.1/CD45.2 expression and cell viability was determined by % of 7AAD-negative cells, in FACS analysis (*p<0.01).
as §1

[3] = test system: MLL-AF9 cells (murine leukemic cancer stem cells); experiment: Colony formation assay (CFU-C) on MLL-AF9 cells; format: cell-based, mouse
[4] = test system: bone marrow primary leukocytes (normal stem cells); experiment: Colony formation assay (CFU-C) on bone marrow primary leukocytes; format: cell-based, mouse; settings: increasing concentrations of carbenoxolone
primary MLL-AF9 cells = experiment: Differentiation assay, Gr-1 and Mac-1 expression in primary MLL-AF9 cells; format: cell-based, mouse; set-up: dose or concentration left out as unconfirmed; settings: CBX for 16 hours; for differentiation of MLL-AF9 cells: Gr-1/Mac-1 expression
Experimental: Cell viability was determined by % of 7AAD-negative cells, in FACS analysis. (*p<0.01).
MLL-AF9 AML cells are undifferentiated myeloid progenitors that express both Gr-1 and Mac-1 antigens, whereas mature myeloid cells express either Gr-1 (granulocytes) or Mac-1 (macrophages).

human AML cell line HL60 = experiment: Neutrophil differentiation (CD66b+/CD14-) by FACS in HL60; format: cell-based; settings: HL60, 16 hours
[5] = test system: freshly isolated primary human leukocytes; experiment: Neutrophil differentiation (CD66b+/CD14-) by FACS in primary human leukocytes; format: cell-based; settings: 16 hours
[6] = test system: freshly isolated primary non-leukemic normal human leukocytes; experiment: Colony formation assay (CFU-C) on normal human leukocytes; format: cell-based
human APL cell line HL60 = experiment: HL60 viability (flow cytometry) and colony formation after CBX; format: cell-based; settings: viability 16 hours, colony formation 7 days post exposure
MLL-AF9 leukemic cells = experiment: Apoptosis of MLL-AF9 leukemic cells (7AAD-negative, annexin-V positive); format: cell-based, mouse; set-up: apoptosis of leukemic cells, kinetics: dose or concentration left out as unconfirmed
Experimental: Rate of proliferation for cell populations used is as follows: MLL-AF9: 3 divisions/24 hours; myeloblasts: 3 divisions/24 hours, eLKS: 7 divisions/24 hours.
The informational material can include instructions to administer the gap junction blocker and/or agents described herein in a suitable manner, e.g., in a suitable dose, dosage form, or mode of administration. […] The informational material can include instructions for selecting a suitable subject, e.g., a human, e.g., a human suffering from relapsed or refractory acute myeloid leukemia. The informational material of the kits is not limited in its form. In many cases, the informational material, e.g., instructions, is provided in printed matter, e.g., a printed text, drawing, and/or photograph, e.g., a label or printed sheet. However, the informational material can also be provided in other formats, such as Braille, computer readable material, video recording, or audio recording. In another embodiment, the informational material of the kit is a link or contact information, e.g., a physical address, email address, hyperlink, website, or telephone number, where a user of the kit can obtain substantive information about the modulator and/or its use in the methods described herein. Of course, the informational material can also be provided in any combination of formats.

[7] = test system: normal bone marrow mononuclear cells (BM-MNC); experiment: Normal bone marrow mononuclear cells in 1:1 mixture with MLL-AF9 cells after CBX; format: cell-based, mouse; settings: CBX vs PBS
[8] = test system: Mac1 (CD11b, integrin αm) in MLL-AF9 cells; experiment: Mac1 expression in CBX treated mice leukemic cells; format: cell-based, mouse; settings: 7AAD-negative MLL-AF9 cells undergoing apoptosis
[9] = test system: Mac1 in human leukemic cell lines U937, HL60 and THP1; experiment: Myelo-marker flow cytometry in CBX-treated human leukemic cell lines; format: cell-based; settings: human leukemias, CBX 16 h
Source text: FIGS. 34A-34D are bar graphs quantifying myelo-markers CD11b (FIG. 34A), CD14+ (FIG. 34B), CD66b+ (FIG. 34C), and CD66+/CD14+ (FIG. 34D) in CBX-treated primary normal human leukocytes as compared to CBX-treated human leukemic cell lines U937, HL60 and THP1.

gap junctions = settings: 100 μM; cited from earlier work

CC1(C)[C@@H](OC(=O)CCC(=O)O)CC[C@]2(C)[C@H]3C(=O)C=C4[C@@H]5C[C@@](C)(C(=O)O)CC[C@]5(C)CC[C@@]4(C)[C@]3(C)CC[C@@H]12 [CBX, Carbenoxolone]
stroma-mediated drug resistance (MLL-AF9 cells; 25 nM cytarabine and 10 nM doxorubicin as chemo, 16 hours): overcomes stroma-mediated drug resistance | eradication (MLL-AF9 cells; co-cultures separated with transwell inserts, CBX + chemotherapy): more than 90% | MLL-AF9 cells eradicated (MLL-AF9 cells; coculture with MS-5, 100 μM CBX 20 minutes before induction chemotherapy): ~90% | cytotoxic effects on normal cells [1]: no cytotoxic effects | effect on normal BM leukocytes in 1:1 mixture with MLL-AF9 ([1]; CBX as high as 400 μM, 16 hours): without affecting the normal cells | eradication of normal blood cells ([1]; CBX at greater than or equal to 100 μM, 16 hours): not the eradication of normal blood cells | sensitivity of wild type primary leukocytes from BM or PB ([1]; CBX even at high concentration, 16 hours): not sensitive | effect on normal counterparts in 1:1 mixtures with different AML cells ([1]; 16 hours): without affecting normal cells; also recorded: without affecting non-leukemic normal counterparts | effect on normal counterparts in 1:1 mixtures with different AML cells ([1]; 16 hours, listed as carbenoxolone): without affecting non-leukemic normal counterparts | eradication of different murine AML cells [2]: selectively eradicates | eradication of different murine AML cells ([2]; listed as Carbenoxolone): selective eradication | eradication of different murine AML cells ([2]; listed as carbenoxolone): selectively eradicates | effect on malignant vs. normal immature stem and progenitor cells (CFU-C) ([3]; CBX at greater than or equal to 50 μM): differential effect | effect on murine leukemic cancer stem cells (CFU-C) ([3]; increasing concentrations of carbenoxolone): eradicates murine leukemic cancer stem cells | effect on normal stem cells (CFU-C) [4]: inducing proliferation of normal stem cells | toxicity to MLL-AF9 cells (primary MLL-AF9 cells): not toxic to the cells | differentiation of MLL-AF9 cells (primary MLL-AF9 cells): induces their differentiation into mature granulocytes | differentiation of MLL-AF9 cells (primary MLL-AF9 cells; listed as carbenoxolone): promotes differentiation of AML cells into short-lived granulocytes | neutrophil differentiation (CD66b+/CD14−) (human AML cell line HL60): induces rapid (within 16 hours) neutrophil differentiation | neutrophil differentiation (CD66b+/CD14−) [5]: does not induce neutrophil differentiation | effect on normal progenitors (CFU-C) ([6]; CBX 100 μM): induces proliferation of normal progenitors | effect on normal human stem and progenitor cells (CFU-C) ([6]; increasing concentrations): inducing proliferation of normal human stem and progenitor cells | sensitivity of HL60 (human APL cell line HL60): sensitive | apoptosis of MLL-AF9 leukemic cells (MLL-AF9 leukemic cells; 6, 12 and 20 hours): rapidly induces apoptosis | cell cycle dependence of CBX-induced leukemia apoptosis (MLL-AF9 leukemic cells; 4 h, 1:1 mixture with highly proliferating normal myeloblasts or expanded LKS cells): not cell cycle dependent | apoptosis of leukemic cells in 1:1 mixture with BM-MNC (MLL-AF9 leukemic cells; CBX vs PBS control, 4h): induces apoptosis of leukemic cells | apoptosis of leukemic cells, kinetics (MLL-AF9 leukemic cells; exposure of about […] μM): selective apoptosis within hours | replenishment of normal healthy cells [7]: enhances the replenishment of normal healthy cells | Mac1 (CD11b) expression [8]: downregulated | Mac1 expression [9]: downregulated | block of cell-cell communication (gap junctions): efficiently blocks cell-cell communication | cell viability (gap junctions): without affecting cell viability
